Laboratory results from patent publication US20070059720A9 (priority 2004, published 2007).

How the values were obtained:
Format in all cases: cell-based, human
[1] = test system: ERα; assay: Immunoblot of phospho-S118 ERα and total ERα in MCF-7 transfectants; details: for total ERα protein level: control transfected and MKP3 overexpressing cells
Experimental: (§1) Cells grown in 100 mm dishes were starved in phenol red-free (PRF), serum-free MEM (Specialty Media, Phillipsburg, N.J.) for 48 hours, and were then treated for 2 hours with vehicle (ethanol), estrogen (100 nM, 20), or OHT (100 nM). After treatment, cells were rinsed twice with ice-cold phosphate-buffered saline (PBS) and were then lysed immediately with 200 μl of cell lysis buffer (20 mM Tris HCl, pH 7.4, 150 mM NaCl, 1 mM B-glycerophosphate, 1 mM sodium orthovanadate, and 10% glycerol plus 1:100 proteinase inhibitor cocktail III) (Calbiochem, LaJolla, Calif.) per 100 mm tissue culture. The cell lysates were cleared by centrifugation at 16,100×g for 10 minutes at 4° C. Protein concentration was determined with the BCA Protein Assay kit (Pierce, Rockfold, Ill.) according to the manufacturer's directions. Equal amount of cell extracts were resolved under denaturing conditions by electrophoresis in 8-10% polyacrylamide gels containing sodium dodecyl sulfate (SDS-PAGE), and transferred to nitrocellulose membranes by electroblotting (Schleicher & Schuell, Keene, NH). After blocking of the transferred nitrocellulose membrane with TBST (20 mM Tris pH 7.6, 150 mM NaCl, 0.1% Tween-20) supplemented with 5% non-fat milk for 1 hour at room temperature, the membrane was incubated with primary antibodies either for 1 hour at room temperature (anti-ERα, 1:100 dilution; anti-AIB1, 1:100 dilution; anti-ERK2, 1:500 dilution; anti-Cyclin D1,1:500 dilution; anti-PR, C-19, 1:200 dilution; anti-p190, 1:1000 dilution; anti-V5, 1:5000 dilution), or overnight at 4° C. (anti-phospho MAPK, 1:1000 dilution; anti-phosphor-Ser118-ERα; 1:1000 dilution; MAPK p42/44, 1:1000 dilution), incubated with secondary antibodies for 1 hour at room temperature and then developed with Enhanced Chemiluminescence Reagents (Amersham Pharmacia Biotech, Piscataway, N.J.).

[2] = test system: MCF-7-MKP3 cells; assay: Anchorage-independent soft agar colony formation, MKP3-overexpressing MCF-7 transfectants
Experimental: MCF-7 cells were originally obtained from Dr. Benita Katzenellebogen, but have been maintained in the inventors' laboratory for over 10 years (Fuqua et al., 2000). MCF-7 cells were maintained in Minimal Essential Medium (MEM, InVitrogen) supplemented with 5% fetal bovine serum (Summit Biotechnology, Fort Collins, Colo.), 200 U/ml penicillin, and 200 μg/ml streptomycin. Cells were incubated at 37° C. in 5% CO2. To generate MCF-7 cells stably overexpressing MKP3, 5 μg of the plasmid pcDNA3-MKP3-V5 (Furukawa et al., 2003) or empty vector (pcDNA3-His-V5, InVitrogen), were transfected into the cells using Fugene 6 reagent Roche Clinical Laboratories, Indianapolis, Ind.) in 100 mm tissue culture dishes following the manufacturer's protocol. Stable clones overexpressing MKP3 were selected as described (Fuqua et al., 2000), and positive clones were identified using immunoblot analysis with an anti-V5 antibody (1:5000 dilution)
(§2) Cells were starved for 2 days in PRF MEM (InVitrogen) supplemented with 5% fetal bovine serum (FBS, Summit Biotechnology, Fort Collins, Colo.), 6 ng/ml insulin, 200 units/ml penicillin, and 200 μg/ml streptomycin. Soft agar assays were performed in sixwell plates. Into each well, 1.5 ml of prewarmed (50° C.) 0.7% SeaPlaque agarose (FMC, Rockland, Me.) was added and dissolved in PRF MEM supplemented with 5% charcoal stripped FBS (Summit, Fort Collins, Colo.) to serve as the bottom layer, and allowed to solidify at 4° C. until to use. 0.5×10^4 cells as a single cell suspension were suspended in prewarmed (37° C.) of the same media, 4 ml of 0.5% SeaPlaque agarose was then added, and this suspension then plated as the top layer by adding it dropwise to the solidified bottom layer plates. Plates were cooled for 2 hours, and then transferred to a 37° C. humidified incubator. Two days after plating, media containing control vehicle, 1 nM estradiol, 100 nM 4-OH-Tam, 100 nM OHT plus 10 nM ICI, or 100 nM OHT plus 20 nM […] was added to the top cell layer, and the appropriate media was replaced every two days. After 14 days, the colonies were fixed, and the colony number of colonies >50 cells from quadruplicate assays were then counted. The data shown is the mean colony number of four plates, and is representative of two independent experiments.
(§3) In pancreatic cells, ectopic expression of MKP3 is reported to result in a suppression of cell growth (Fuqua et al., 2003). Thus, the growth characteristics of the MCF-7 stable MKP3 transfectants under different hormonal conditions were investigated using anchorageindependent soft agar assay (FIG. 4B).

[3] = test system: T47D cells overexpressing MTA2; assay: Soft agar growth of MTA2-overexpressing T47D cells; details: MTA2.5 and 2.8 clones compared to vector alone transfected cells
Description: Metastasis associated protein 2 (MTA2), also known as PID, is contained in nucleosome remodeling and histone deacetylation (NuRD) complexes. Overexpression of MTA2 into T47D human breast cancer cells (MTA2.5 and 2.8 clones) increases the growth in soft agar in the absence of estrogen (C).

[4] = test system: progesterone receptor (PR) A and B forms; assay: Immunoblot of PR-A and PR-B in MCF-7 transfectants
Experimental: as §1
As expected with two hours of estrogen treatment, no induction of the two PR isoforms were detected in either the control vector (Con 1 and 2), or in the MKP3-transfected cells (FIG. 11A). […]

[5] = test system: MCF-7 vector control cells; assay: Anchorage-independent soft agar colony formation, MCF-7 vector control cells; details: MCF-7 vector control cells; 1 nM estradiol or 100 nM 4-OH-Tam; 14 days
Experimental: as §2, §3

[6] = test system: ERK 1,2 MAPK; assay: Immunoblot of phospho-MAPK in MCF-7 transfectants; details: MKP3-overexpressing MCF-7 cells; 2 hours, 100 nM
Experimental: as §1
MAPK activity is tightly regulated by phosphorylation and dephosphorylation. MKP3 participates in a bidirectional regulatory loop with ERK2 MAPK, whereby ERK2 substrate binding is associated with catalytic activation of MKP3, and activated MKP3 negatively regulates pERK2 (Camps et al., 1998). […] Immunoblot analysis with anti-V5 was used to detect ectopic MKP3 expression in the two MKP3 transfectants (FIG. 5A, top panel). FIGS. 5B and 5C provide quantitation of results in FIG. 5A.

`CC/C(=C(\c1ccccc1)c1ccc(OCCN(C)C)cc1)c1ccccc1` [Tam, tamoxifen] was tested, and the “phosphorylation at ERα serine 118” value ([1]; MKP3 transfectants, 2 hours) was “highly induced”, the “total ERα protein level” value [1] was “stabilization” and the “increase in number of soft agar colonies formed in the presence of Tam, MKP3-overexpressing transfectants compared to vector control cells” value ([2]; 100 nM 4-OH-Tam, two MKP3 clones, P<0.05) was roughly 20 fold. For the same compound, the “response of soft agar growth” value [3] was “unresponsive”, the PR-B levels ([4]; two MKP3 transfectants, not observed in control MCF-7 transfectants) was “striking diminution” and the “number of colonies in soft agar” value [5] was “reduced the number of colonies”. The “levels of pMAPK” value [6] was “highest activation of MAPK”.
In the case of `C[C@]12CC[C@@H]3c4ccc(O)cc4CC[C@H]3[C@@H]1CC[C@@H]2O` [E2, 17β-Estradiol], the “total ERα protein level” value [1] is reported as “Down regulation”, the “estrogen-induced colony formation of MCF-7-MKP3 clones” value ([2]; 1 nM estradiol, versus vector control cells) is reported as “equivalent to those obtained with vector control cells” and the “response of soft agar growth” value [3] is reported as “unresponsive”. The “induction of the two PR isoforms” value ([4]; two hours of treatment, control vector and MKP3-transfected cells) was “no induction”, the “number of colonies in soft agar” value [5] was “increased the number of colonies” and the “levels of pMAPK” value [6] was “lowest”.
